Data on one sequence can be found in patent EP1408048A1, “Vaccines of enhanced immunogenicity, and methods for preparing such vaccines” (INSTITUT NATIONAL DE LA SANTE ET DE LA RECHERCHE MEDICALE …, priority 2002, dated 2004).

The test system of this assay is TAP. The assay is described as follows: TAP competitive binding assay with radio-labeled reporter peptide R9L. The settings on record: result in words; TAP affinity = inverse of the IC50; reporter peptide R9L at 300 nM. How it is done:
TAP affinities were determined in a competitive binding assay. IC50 values for competitor test peptides were normalized with respect to the IC50 of reporter peptide […] (SEQ ID N° 2).
Determination of HLA-A2 and TAP affinities. […] Results are expressed as inverse normalized IC50 (1/IC50 of test peptide/ IC50 of cold reporter peptide).

As to RRYNASTEL [R9L], the TAP affinity entry is reported as “high”.
